# Data: US20100021918A1, “METHOD FOR ASSAYING ACTION OF ANTITUMOR AGENT USING SPLICING DEFECTS AS INDEX” (Eisai R&D Management Co., Ltd., priority 2007, published 2010)
# Test system: human colon carcinoma cell strain WiDr
# Test: Microarray analysis (Human Exon 1.0 ST Array) of intron expression, Table 1
# Type: cell-based
# Conditions: six hours
# Method: Using RNA purified from human colon carcinoma cell strain WiDr treated with 14 nM of (8E,12E,14E)-7-((4-cycloheptylpiperazin-1-yl)carbonyl)oxy-3,6,16,21-tetrahydroxy-6,10,12,16,20-pentamethyl-18,19-epoxytricosa-8,12,14-trien-11-olide (also referred to as “[…]”) for six hours, microarray analysis (Human Exon 1.0 ST Array: Affymetrix) was carried out. Not only does this array comprehensively cover the exons for all genes, but it is also designed to have probes for regions estimated as potential exons by a computer prediction program, which enables detection of the expression of the exons and introns of all genes in theory.
# WiDr cells were first suspended in RPMI1640 medium (containing 10% FBS, penicillin, and streptomycin) and seeded in a 10 cm dish (2×10^6 cells/dish). After an overnight culture in an incubator with 5% carbon dioxide gas at 37° C., the medium was changed with medium containing 14 nM of (8E,12E,14E)-7-((4-cycloheptylpiperazin-1-yl)carbonyl)oxy-3,6,16,21-tetrahydroxy-6,10,12,16,20-pentamethyl-18,19-epoxytricosa-8,12,14-trien-11-olide or containing vehicle alone. After cultured for additional six hours, TRI reagent (SIGMA) were added to the cells and the cells were harvested. RNA was purified in accordance with the protocol of TRI reagent, followed by further purification with RNeasy (QIAGEN). Absorbance at 260 nm was measured to quantify an amount of RNA. This experiment was repeated three times and RNA samples (n=3) were prepared.
# Ribosomal RNA was removed from 1 μg of each total RNA of control cells (n=3) and cells with the treatment (n=3) by using RiboMinus Human/Mouse Transcriptome Isolation Kit (Invitrogen). Single stranded cDNA synthesis, double stranded cDNA synthesis, cRNA synthesis, second single stranded cDNA synthesis, cDNA fragmentation, and cDNA labeling in order were carried out for the total RNA from which ribosomal RNA was removed, by using GeneChip Whole Transcript Sense Target Labeling and Control Reagents (Affymetrix) to make a cDNA probe. The cDNA probe was used for hybridization with Human Exon 1.0 ST Array (Affymetrix). The array was washed and stained, and luminescence intensity was measured by a scanner.
# The expression level of the probe set and the gene was quantified by using Expression Console Ver. 1.0 (Affymetrix) with Summarization Method and Normalization Method being set to “Median polish as used in RMA” and “None”, respectively. The expression level of the probe was normalized with that of the gene. Welch's t-test was conducted for the treated group and the control group to determine a p value, which was converted into a q value by controlling False Discovery Ratio to pick out a significant probe set.
# Probe sets showing that the q value was less than 1%; the normalized change in the level expression of the probe set in the group with the treatment was more than 10 times; the expression level of the probe set and the gene in the group with the treatment was more than 100; and probe set annotation was “extended, full, free”, were picked out and further arranged by gene. A gene was, when more than one probe sets therefor were found, determined as a candidate gene with increased expression level of the intron regions (Table 1). In Table 1, for the gene evaluated, gene name (Gene Name), abbreviated name (Gene Symbol), accession number (Accession), alias name (Synonym), transcription number in Human Exon 1.0 ST Array (Human Exon 1.0 ST Array), chromosome number (Chromosome), type of strand (Strand), start region (Start), stop region (Stop), and change in expression level (Fold Change) were respectively shown.
compound,measurement,setting,value
"CCC(O)C(C)C1OC1CC(C)(O)/C=C/C=C(\C)C1OC(=O)CC(O)CCC(C)(O)C(OC(=O)N2CCN(C3CCCCCC3)CC2)/C=C/C1C (centres unmarked) [E7107, (8E,12E,14E)-7-((4-cycloheptylpiperazin-1-yl)carbonyl)oxy-3,6,16,21-tetrahydroxy-6,10,12,16,20-pentamethyl-18,19-epoxytricosa-8,12,14-trien-11-olide]","Fold Change (change in expression level, intron probe sets) ADRM1","gene ADRM1, 14 nM",13.51
same,"Fold Change (change in expression level, intron probe sets) AK2","gene AK2, 14 nM",10.05
same,"Fold Change (change in expression level, intron probe sets) ARFIP2","gene ARFIP2, 14 nM",12.04
same,"Fold Change (change in expression level, intron probe sets) ARHGAP12","gene ARHGAP12, 14 nM",11.60
same,"Fold Change (change in expression level, intron probe sets) ATP1B1","gene ATP1B1, 14 nM",12.11
same,"Fold Change (change in expression level, intron probe sets) BAT2D1","gene BAT2D1, 14 nM",11.26
same,"Fold Change (change in expression level, intron probe sets) BPTF","gene BPTF, 14 nM",17.61
same,"Fold Change (change in expression level, intron probe sets) BXDC2","gene BXDC2, 14 nM",25.94
same,"Fold Change (change in expression level, intron probe sets) C6orf166","gene C6orf166, 14 nM",19.23
same,"Fold Change (change in expression level, intron probe sets) C9orf86 // KIAA1984","gene C9orf86 // KIAA1984, 14 nM",13.66
same,"Fold Change (change in expression level, intron probe sets) C10orf18","gene C10orf18, 14 nM",19.86
same,"Fold Change (change in expression level, intron probe sets) C16orf80","gene C16orf80, 14 nM",16.25
same,"Fold Change (change in expression level, intron probe sets) CABLES1","gene CABLES1, 14 nM",16.94
same,"Fold Change (change in expression level, intron probe sets) CCND1","gene CCND1, 14 nM",12.66
same,"Fold Change (change in expression level, intron probe sets) CCNL2","gene CCNL2, 14 nM",12.84
same,"Fold Change (change in expression level, intron probe sets) CDC20","gene CDC20, 14 nM",18.22
same,"Fold Change (change in expression level, intron probe sets) CENPL","gene CENPL, 14 nM",14.13
same,"Fold Change (change in expression level, intron probe sets) DCBLD2","gene DCBLD2, 14 nM",19.52
same,"Fold Change (change in expression level, intron probe sets) DDEF2","gene DDEF2, 14 nM",22.92
same,"Fold Change (change in expression level, intron probe sets) DKC1","gene DKC1, 14 nM",11.53
same,"Fold Change (change in expression level, intron probe sets) DNAJB1","gene DNAJB1, 14 nM",11.95
same,"Fold Change (change in expression level, intron probe sets) EIF2C2","gene EIF2C2, 14 nM",21.33
same,"Fold Change (change in expression level, intron probe sets) EIF4A1","gene EIF4A1, 14 nM",16.15
same,"Fold Change (change in expression level, intron probe sets) EIF5","gene EIF5, 14 nM",12.30
same,"Fold Change (change in expression level, intron probe sets) FOXK2","gene FOXK2, 14 nM",18.79
same,"Fold Change (change in expression level, intron probe sets) GNB2L1","gene GNB2L1, 14 nM",11.87
same,"Fold Change (change in expression level, intron probe sets) GNL3","gene GNL3, 14 nM",14.08
same,"Fold Change (change in expression level, intron probe sets) GTPBP4","gene GTPBP4, 14 nM",12.24
same,"Fold Change (change in expression level, intron probe sets) HMGCS1","gene HMGCS1, 14 nM",13.21
same,"Fold Change (change in expression level, intron probe sets) HSPA9","gene HSPA9, 14 nM",13.33
same,"Fold Change (change in expression level, intron probe sets) HSPH1","gene HSPH1, 14 nM",15.12
same,"Fold Change (change in expression level, intron probe sets) IDI1","gene IDI1, 14 nM",19.25
same,"Fold Change (change in expression level, intron probe sets) ILF2","gene ILF2, 14 nM",13.79
same,"Fold Change (change in expression level, intron probe sets) ITGB1","gene ITGB1, 14 nM",21.48
same,"Fold Change (change in expression level, intron probe sets) JARID1C","gene JARID1C, 14 nM",14.09
same,"Fold Change (change in expression level, intron probe sets) KIAA0174","gene KIAA0174, 14 nM",19.65
same,"Fold Change (change in expression level, intron probe sets) KIAA1429","gene KIAA1429, 14 nM",14.19
same,"Fold Change (change in expression level, intron probe sets) KLHL18","gene KLHL18, 14 nM",15.00
same,"Fold Change (change in expression level, intron probe sets) KRT18","gene KRT18, 14 nM",13.41
same,"Fold Change (change in expression level, intron probe sets) LMO7","gene LMO7, 14 nM",14.34
same,"Fold Change (change in expression level, intron probe sets) LTV1","gene LTV1, 14 nM",18.37
same,"Fold Change (change in expression level, intron probe sets) MAT2A","gene MAT2A, 14 nM",12.29
same,"Fold Change (change in expression level, intron probe sets) MBNL2","gene MBNL2, 14 nM",28.86
same,"Fold Change (change in expression level, intron probe sets) MYO1E","gene MYO1E, 14 nM",14.49
same,"Fold Change (change in expression level, intron probe sets) NET1","gene NET1, 14 nM",13.02
same,"Fold Change (change in expression level, intron probe sets) NUPL1","gene NUPL1, 14 nM",12.63
same,"Fold Change (change in expression level, intron probe sets) PUM2","gene PUM2, 14 nM",19.01
same,"Fold Change (change in expression level, intron probe sets) RAF1","gene RAF1, 14 nM",16.41
same,"Fold Change (change in expression level, intron probe sets) RIOK3","gene RIOK3, 14 nM",13.67
same,"Fold Change (change in expression level, intron probe sets) RNF40","gene RNF40, 14 nM",15.84
same,"Fold Change (change in expression level, intron probe sets) RSPRY1","gene RSPRY1, 14 nM",14.32
same,"Fold Change (change in expression level, intron probe sets) SART3","gene SART3, 14 nM",15.13
same,"Fold Change (change in expression level, intron probe sets) SLC2A1","gene SLC2A1, 14 nM",16.44
same,"Fold Change (change in expression level, intron probe sets) SMAD3","gene SMAD3, 14 nM",12.88
same,"Fold Change (change in expression level, intron probe sets) SMURF2","gene SMURF2, 14 nM",16.60
same,"Fold Change (change in expression level, intron probe sets) SNX19","gene SNX19, 14 nM",17.12
same,"Fold Change (change in expression level, intron probe sets) SPRED2","gene SPRED2, 14 nM",31.56
same,"Fold Change (change in expression level, intron probe sets) ST3GAL1","gene ST3GAL1, 14 nM",12.77
same,"Fold Change (change in expression level, intron probe sets) SUPV3L1","gene SUPV3L1, 14 nM",18.81
same,"Fold Change (change in expression level, intron probe sets) TARDBP","gene TARDBP, 14 nM",18.13
same,"Fold Change (change in expression level, intron probe sets) TES","gene TES, 14 nM",15.95
same,"Fold Change (change in expression level, intron probe sets) TINF2","gene TINF2, 14 nM",11.05
same,"Fold Change (change in expression level, intron probe sets) TJP1","gene TJP1, 14 nM",11.55
same,"Fold Change (change in expression level, intron probe sets) UBE3A","gene UBE3A, 14 nM",19.35
same,"Fold Change (change in expression level, intron probe sets) USP47","gene USP47, 14 nM",12.32
same,"Fold Change (change in expression level, intron probe sets) VIL2","gene VIL2, 14 nM",17.50
same,"Fold Change (change in expression level, intron probe sets) WAC","gene WAC, 14 nM",18.53
same,"Fold Change (change in expression level, intron probe sets) WDR45L","gene WDR45L, 14 nM",12.59
same,"Fold Change (change in expression level, intron probe sets) WDR73","gene WDR73, 14 nM",30.61
same,"Fold Change (change in expression level, intron probe sets) WDR74","gene WDR74, 14 nM",12.70
same,"Fold Change (change in expression level, intron probe sets) WEE1","gene WEE1, 14 nM",12.26
same,"Fold Change (change in expression level, intron probe sets) YTHDC1","gene YTHDC1, 14 nM",10.66
same,"Fold Change (change in expression level, intron probe sets) ZNF384","gene ZNF384, 14 nM",12.13
same,"Fold Change (change in expression level, intron probe sets) ZNF410","gene ZNF410, 14 nM",12.01
